Assay results published in US8722897B2, “Metal complexes of thiourea and derivatives as metal delivering anti-cancer and anti-inflammatory agents” (priority 2010, dated 2014).

Columns and labels:
Recombinant rat TrxR1 = molecular target: T1, Recombinant rat TrxR1 (Rattus norvegicus, UniProt O89049); experiment: biochemical; conditions: preformed EI*
T1 construct: purchased ICMO Corp, Sweden (so in the source)
T1 sequence (O89049 1-499): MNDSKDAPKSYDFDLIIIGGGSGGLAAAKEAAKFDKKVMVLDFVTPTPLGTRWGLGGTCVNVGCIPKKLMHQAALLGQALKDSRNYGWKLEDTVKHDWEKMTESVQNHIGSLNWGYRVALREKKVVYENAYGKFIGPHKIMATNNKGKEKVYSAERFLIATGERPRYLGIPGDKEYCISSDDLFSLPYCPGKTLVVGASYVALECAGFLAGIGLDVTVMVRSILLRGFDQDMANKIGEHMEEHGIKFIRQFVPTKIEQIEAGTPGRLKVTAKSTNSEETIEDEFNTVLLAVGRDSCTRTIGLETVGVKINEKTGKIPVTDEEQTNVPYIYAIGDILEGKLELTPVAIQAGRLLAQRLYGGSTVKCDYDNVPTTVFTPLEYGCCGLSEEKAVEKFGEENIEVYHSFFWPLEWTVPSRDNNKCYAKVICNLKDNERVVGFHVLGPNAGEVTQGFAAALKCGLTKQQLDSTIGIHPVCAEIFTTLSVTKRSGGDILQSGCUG
Description: 1 nM Recombinant rat TrxR1 (ICMO Corp, Sweden) was reduced with 0.2 mM NADPH and then incubated with 0.3-10 nM of 1 for 30 min in a buffer of 100 mM phosphate buffer, pH 7.4 and 1 mM EDTA. The residual activities were measured using 0.75, 1.5 or 3 mM DTNB (FIG. 7A). The data were fit into Eq. 1 using GraphPad Prism 3.0 software. vs/vo=(Et−Ki−It+((It+Ki′−Et)^2+(4KiEt))^1/2)/(2Et) (1) Eq. 1 describes the rate law of tight-binding inhibition in which case the inhibitor concentration is substantially depleted owing to formation of enzyme-inhibitor complex. In this equation, vo is the observed velocity in the absence of inhibitor, vs is the steady-state velocity in the presence of inhibitor, Et is the total enzyme concentration, and I is the inhibitor concentration. […] Ki=Ki*(1+S/Km) (2) Determination of Ki by Progress Curve Analysis ^35, 36 (FIG. 8)

NADPH-reduced TrxR1 = molecular target: T2, NADPH-reduced TrxR1 (Rattus norvegicus, UniProt O89049); experiment: BIAM labeling of cysteine and selenocysteine residues of TrxR1; format: biochemical; conditions: TrxR 0.1 μM, compound 4 μM, pH 8.5 and pH 6.5
T2 sequence (O89049 1-499): T1 sequence (O89049 1-499)
Excerpt: The reduced TrxR has free —SH (Cys496) and —SeH (Sec497) groups at the C-terminal active site, making it vulnerable to be attacked by Au(I). ^20, 22, 23 These redox active sites can be probed by biotinylated iodoacetamide (BIAM), which alkylates the free —SH and —SeH groups; and the resulting adduct can be detected by western blot experiment using streptavidin-linked horseradish peroxidase (FIG. 10). ^26, 27 It has been shown that these residues can be selectively alkylated by BIAM by adjusting the pH. At pH 8.5, both —SH and —SeH are alkylated. At pH 6.5, only the —SeH is alkylated owing to the low pKa value for selenocysteine, and thus a weaker streptavidin signal was obtained in which case. […] It is highly likely that the formation of the tight enzyme-inhibitor complex (EI*) involves covalent modification of the redox active selenocysteine and cysteine residue via the Au(I) complex. ^28
NADPH-reduced TrxR1 (0.1 μM) and 1 (4 μM) were incubated in reaction buffer (100 mM phosphate buffer, pH 7.4, 1 mM EDTA) at room temperature for 1 h. […] The separated proteins were transferred to nitrocellulose membrane and the BIAM labeled proteins were detected with horseradish peroxidase conjugated streptavidin and enhanced chemiluminescence detection.

[1] = Cytotoxicity assay (MTT), HeLa; conditions: human, HeLa cells
Description: Cells were seeded in a 96-well flat-bottomed microplate at 20,000 cells/well in 150 μL of growth medium solution. The compounds were dissolved in dimethyl sulfoxide. Serial dilution of each complex was added to each well with final concentration of DMSO≦1%. […] After incubation, 10 μL MTT reagent (5 mg/mL) was added to each well. The microplate was re-incubated at 37° C. in 5% CO2 for 4 h. Solubilization solution (10% SDS in 0.01 M HCl) (100 μL) was added to each well. The microplate was left in an incubator for 24 h. Absorbances at 550 nm were measured by a microplate reader.

[2] = Cytotoxicity assay (MTT), HepG2; conditions: human, HepG2 cells
Description: (§1) Cells were seeded in a 96-well flat-bottomed microplate at 20,000 cells/well in 150 μL of growth medium solution. The compounds were dissolved in dimethyl sulfoxide. Serial dilution of each complex was added to each well with final concentration of DMSO≦1%. The microplate was incubated at 37° C., 5% CO2, 95% air in a humidified incubator for 72 h. After incubation, 10 μL MTT reagent (5 mg/mL) was added to each well. The microplate was re-incubated at 37° C. in 5% CO2 for 4 h. Solubilization solution (10% SDS in 0.01 M HCl) (100 μL) was added to each well. The microplate was left in an incubator for 24 h. Absorbances at 550 nm were measured by a microplate reader.

[3] = Cytotoxicity assay (MTT), NCI-H460; conditions: human, NCI-H460 cells
Description: as §1

In the case of COc1ccc(N2CCN(c3ccc(OC)cc3)C2=[S+][Au-][S+]=C2N(c3ccc(OC)cc3)CCN2c2ccc(OC)cc2)cc1 [complex 1, [Au(TU)2]Cl], the Ki (Recombinant rat TrxR1; apparent inhibitory constant (Ki), 1 nM TrxR1, 30 min preincubation, steady state rate law) is reported as 670 pM, the Ki (Recombinant rat TrxR1; inhibitory constant Ki*, corrected for substrate competition, Km 0.2 mM) is reported as 36 pM and the “BIAM labeling of TrxR” value (NADPH-reduced TrxR1) is reported as “inhibited”. It also gave an IC50 at 72 h [1] of 14.6 ± 0.7 µM, an IC50 at 72 h [2] of 17.4 ± 1 µM and an IC50 at 72 h [3] of 3.72 ± 0.3 µM.
